This is an account of results in PubChem BioAssay (NCI).

Common to all, as to assay: NCI-60 cell line screen, 48 h
Test [1] relates to A549 NSCLC.
The test system of test [2] is HOP-62 NSCLC.
Test [3] deals with PC-3 prostate.
For test [4], the system named is MDA-MB-435.
In test [5] the test system is MCF7 breast.
Test [6] has as its system NCI-H23 lung.
The subject of test [7] is K-562 leukemia.
The subject of test [8] is UACC-62 melanoma.
Test [9] relates to OVCAR-8 ovarian.
Test [10] has as its system SK-MEL-28 melanoma.

Each structure is given as a SMILES string. Several values for one entry are separate records, joined by “and”; a condition that tells them apart may be missing. Identical values can stand only once.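 Grown in 96-well plates, cells were treated for 48 hours with each compound at five concentrations. Insufficient inhibition: endpoint recorded as highest concentration tested. The concentration for 50% growth inhibition is given as GI50. TGI marks complete inhibition of growth.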

As for `O=C1c2cccc(NCCCNCCO)c2C(=O)c2cccc(NCCCNCCO)c21`, the TGI in test [1] was 7.34 µM and 4.62 µM; in test [2], 6.38 µM and 6.71 µM; in test [3], 5.84 µM; in test [4], 3.06 µM; in test [5] it was 1.41 µM; in test [6] it was 6.08 µM and 4.38 µM. The TGI in test [7] is 18.8 µM and 8.27 µM; in test [8] it was 3.25 µM and 4.33 µM; in test [9], 4.57 µM and 5.66 µM; in test [10] it was 3.99 µM and 3.84 µM. The GI50 in test [7] is 3.69 µM and 1.05 µM.

In the case of `COc1ccc(-n2cc(-c3cc(OC)c(OC)c(OC)c3)c(C(=O)C(F)(F)F)c2C)cc1`, the GI50 in [1] was 28 µM; in [2], above 100 µM; in test [3], 9.01 µM; in test [4], 43.3 µM; in test [5] it was 14.2 µM; in test [6], 8.53 µM. In addition, the GI50 was 22 µM in test [7], 15.6 µM in test [8], above 100 µM in test [9] and above 100 µM in test [10]. Further, the TGI in [1], in test [2], in [3], in test [4], in [5] and in [6] was above 100 µM each time. Moreover, the TGI in test [7], in test [8], in test [9] and in [10] was above 100 µM each time.

Take `CS(=O)(=O)Nc1ccc2c(c1)oc(=O)c1ccccc12`: the TGI in test [1], in test [2], in [3], in test [4], in [5] and in test [6] was above 100 µM throughout. Moreover, the TGI in test [7], in test [8], in test [9] and in test [10] was above 100 µM in each case.

Consider `CCN(CC)CCOc1ccc(-c2nc3cc(Cl)ccc3s2)cc1`, for which the GI50 in test [1] is 1.75 µM; in [2], 1.74 µM; in test [3], 1.74 µM; in test [4], 1.65 µM; in test [5] it was 1.45 µM; in test [6], 1.64 µM. The GI50 is 1.26 µM in test [7], 1.78 µM in test [8], 1.99 µM in test [9] and 1.99 µM in test [10]. The TGI was 3.47 µM in test [1]; 3.25 µM in test [2]; 4.61 µM in [3]; 3.18 µM in test [4]; 2.83 µM in test [5]; 3.32 µM in [6]. The TGI was above 100 µM in test [7], 3.33 µM in test [8], 4.02 µM in test [9] and 3.94 µM in test [10].

`CCN1CCN(C(c2ccc(C(F)(F)F)cc2)c2ccc3cccnc3c2O)CC1` (configuration not stated): the GI50 in [1] is 1.31 µM; in test [2], 1.32 µM; in test [3], 0.361 µM; in test [4], 3.76 µM; in [5] it was 3.46 µM; in test [6] it was 2.35 µM. The GI50 in test [7] was 3.49 µM; in test [8], 1.98 µM; in test [9] it was 1.85 µM; in test [10], 3.68 µM. The TGI in test [1] is 12.1 µM; in test [2] it was 13.7 µM; in test [3], 17.6 µM; in [4], 17.8 µM; in test [5], 14.9 µM; in test [6] it was 14.9 µM. Besides, the TGI was 14.6 µM in test [7], 10.4 µM in [8], 13.5 µM in test [9] and 16.6 µM in [10].

As for `C=COCCCOc1ccccc1`, the TGI in [1], in test [2], in [3], in test [4], in test [5] and in test [6] was above 100 µM in each case. Also, the TGI in [7], in test [8], in test [9] and in test [10] was above 100 µM in each case. In addition, the GI50 in test [3], in [4], in test [5] and in test [8] was above 100 µM throughout.

`CC(C)=CC/C=C(/C)[C@H]1CC[C@]2(C)[C@@H]1CC[C@@H]1[C@@]3(C)CCCNC(C)(C)[C@@H]3CC[C@]12C`: the GI50 is 2.15 µM in test [1]; 1.9 µM in [2]; 1.62 µM in [3]; 1.83 µM in [4]; 2 µM in test [5]; 3.17 µM in test [6]. Moreover, the figures for the GI50 in [7], in test [8] and in test [10] were 1.79 µM, 5.5 µM and 2.35 µM, respectively. The TGI in [1] was determined as 4.88 µM; in [2], 3.9 µM; in [3] it was 3.59 µM; in test [4] it was 3.49 µM; in [5] it was 3.92 µM; in test [7], 5.3 µM. The values for the TGI in test [8] and in [10] were 20.1 µM and 5.67 µM, respectively.

For the compound `S=C1NC2(CCCCCC2)NN1c1ccccc1`, the TGI in [1] is above 100 µM; in test [2], above 22.7 µM; in test [3], above 100 µM; in test [4] it was above 100 µM; in test [5] it was above 100 µM; in test [6] it was above 100 µM. For the same compound, the TGI in [7] is 16.6 µM; in test [8], above 100 µM; in [9], above 100 µM; in test [10], above 100 µM.

For the compound `O=C(OC(CNc1cc(=O)n(Cc2ccccc2)c(=O)n1Cc1ccccc1)CN1CCCC1)c1ccccc1` (configuration not stated), the GI50 in [1], in test [2], in test [3], in [4], in test [5] and in [6] was above 100 µM each time. In addition, the GI50 in [7] was 92.1 µM; in test [8], 89.4 µM; in [9], above 100 µM; in test [10] it was above 100 µM. Besides, the TGI in test [1], in test [2], in test [3], in test [4], in [5] and in test [6] was above 100 µM throughout. Besides, the TGI in test [7], in test [8], in test [9] and in test [10] was above 100 µM throughout.

`COc1cc(C2CC(c3cccc(Br)c3)=NN2C(C)=O)cc(OC)c1OC` (configuration not stated): the GI50 was 0.635 µM in [1]; 3.56 µM in test [2]; 0.162 µM in [3]; 0.0514 µM in test [4]; 0.208 µM in test [5]; 1.66 µM in test [6]. For the same compound, the GI50 was 0.114 µM in [7], 0.309 µM in test [8], 0.618 µM in [9] and 3.8 µM in test [10]. For the same compound, the TGI was above 100 µM in test [1]; 62.8 µM in test [2]; 36.2 µM in [3]; 0.297 µM in test [4]; 27.1 µM in test [5]; above 81.3 µM in test [6]. In addition, the TGI is 11.7 µM in test [7], 29.3 µM in test [8], above 46.2 µM in [9] and above 77.9 µM in test [10].

In the case of `O=C(Nc1nc2ccc(C(F)(F)F)cc2s1)c1cc(Cl)ccc1O`, the GI50 in test [1] was 1.51 µM; in [2], 2.03 µM; in test [3] it was 0.318 µM; in [4], 1.69 µM; in [5], 2.18 µM; in [6] it was 0.367 µM. The GI50 in test [7] was 0.351 µM; in [8], 0.337 µM; in [9] it was 1.12 µM; in test [10], 0.425 µM. For the same compound, the TGI in test [1] is above 100 µM; in test [2], 7.09 µM; in test [3], 11.9 µM; in [4], above 100 µM; in [5] it was above 100 µM; in test [6] it was 9.53 µM. In addition, the TGI is above 100 µM in test [7], 3.52 µM in test [8], above 100 µM in test [9] and 18 µM in [10].

For the compound `CCn1c(-c2nonc2N)nc2c(C#CC(C)(C)O)nc(OC[C@H](N)c3ccccc3)cc21`, the GI50 in test [1] is 3.69 µM; in test [2], 5.54 µM; in test [3], 3.92 µM; in [4] it was 4.79 µM; in test [5], 2.92 µM; in test [6], 5.21 µM. Also, the GI50 in test [7] was 5.09 µM; in test [8] it was 4.24 µM; in test [9] it was 4.21 µM; in [10], 4.75 µM. For the same compound, the TGI worked out at 7.45 µM in test [1]; 9.99 µM in [2]; 8.87 µM in test [3]; 9.42 µM in [4]; 6.16 µM in [5]; 12.4 µM in test [6]. In addition, the TGI was found to be 14 µM in [7], 8.08 µM in [8], 9.44 µM in test [9] and 8.56 µM in test [10].

In the case of `O=C1NC(=O)C(c2cnc3ccccn23)=C1c1cn2c3c(cc(F)cc13)CN(C(=O)N1CCCCC1)CC2`, the GI50 in test [1] is 7.85 µM; in [2] it was 15 µM; in test [3], 4.17 µM; in test [4] it was 14.6 µM; in [5], below 0.01 µM; in test [6], 17.2 µM. For the same compound, the GI50 was 3.39 µM in test [7], 7.72 µM in test [8], 6.89 µM in test [9] and 19.5 µM in [10]. Also, the TGI in test [1] came out at 71.5 µM; in [2] it was 40.4 µM; in [3], 41.8 µM; in [4], 40.3 µM; in [5], 21.1 µM; in test [6], 52.3 µM. Moreover, the TGI in [7] was above 100 µM; in [8], 22.9 µM; in test [9], above 92.1 µM; in test [10], 45 µM.

For `CCOC(=O)CCCn1c(SC)nc2[nH]cc(-c3ccccc3)c2c1=O`, the GI50 in test [1] is 12.2 µM; in test [2] it was 11 µM; in test [3] it was 13.8 µM; in [4], 19.4 µM; in test [5], 18.4 µM; in test [6], 11.6 µM. Besides, the GI50 in [7] was 12.7 µM; in test [8], 11.2 µM; in [9], 19 µM; in [10], 17.6 µM. Besides, the TGI was 36.2 µM in [1]; 40.4 µM in [2]; 35.8 µM in test [3]; 42.4 µM in [4]; 76.6 µM in test [5]; 34.6 µM in test [6]. The TGI in test [7] amounted to 56.9 µM; in test [8], 25.1 µM; in [9] it was 58.9 µM; in test [10] it was 37.1 µM.

On to `O=C(O)CCC(=O)c1ccc[nH]1`, for which the TGI in test [1], in [2], in test [3], in test [4], in [5] and in test [6] was above 100 µM in each case. For the same compound, the TGI in [7], in [8] and in [9] was above 100 µM throughout.

With `COc1ccc(CN2C(=O)/C(=C\C(=O)c3ccc(OCCN4CCCCC4)cc3)c3ccccc32)cc1`, the GI50 in [1] is 15.9 µM; in test [2] it was 20.2 µM; in test [3], 2.7 µM; in test [4], 3.12 µM; in test [5] it was 1.85 µM; in test [6] it was 6.68 µM. Besides, the GI50 was 2.31 µM in [7], 1.67 µM in [8] and 1.98 µM in test [10]. In addition, the TGI in test [1] turned out to be 31.2 µM; in [2], 35.4 µM; in [3], 5.55 µM; in [4], 12.3 µM; in test [5], 4.6 µM; in test [6] it was 21.6 µM. Also, the figures for the TGI in test [7], in test [8] and in test [10] were 10.4 µM, 3.13 µM and 4.02 µM, respectively.

On to `CCCCCCCCCCCCCC1=NC(C)(C)CN1C(C)C`, for which the GI50 was 1.76 µM in [1]; 1.73 µM in test [2]; 1.34 µM in [3]; 1.51 µM in test [4]; 1.67 µM in test [5]; 1.67 µM in test [6]. Besides, the GI50 in test [8] was 1.74 µM; in test [9], 1.78 µM; in test [10] it was 1.74 µM. In addition, the TGI in test [1] stood at 3.25 µM; in test [2] it was 3.17 µM; in test [3] it was 3.03 µM; in test [4], 3.08 µM; in test [5], 3.13 µM; in [6] it was 3.11 µM. Also, the TGI was 3.2 µM in [8], 3.42 µM in test [9] and 3.11 µM in test [10].
